Results on ten molecules are retold here after US20060079453A1, “Hla binding peptides and their uses” (priority 2002, published 2006).

Experiment in all cases: biochemical
What all share (format): binding

The target in assay [1] is HLA-DR DRB1*0101 (DR1) (Homo sapiens, UniProt P01903+P01911, A100R/D57E/F55L/F60I/F76Y/I96L/L162R/M171V/P40L/Q125E/R42F/V115G/Y59C). The following applies: DRB1 *0101.
In assay [2] the target is HLA-DR DRB1*0401 (DR4) (Homo sapiens, UniProt P01903+P01911, A100K/A169T/F76Y/I96L/K127E/L162R/M171V/N62H/P40V/Q125Y/R42H/S133A/S149N/S66Y/V115G/V209L/W38E). The following applies: DRB1 *0401.
Assay [3] deals with HLA-DR DRB1*0701 (DR7) (Homo sapiens, UniProt P01903+P01911, A100R/A102G/A103Q/D57E/D86V/E43K/F76Y/K127E/L162R/M171V/P40G/Q125H/Q99D/R33Q/R42Y/R54Q/S133A/S66F/T210M/V115G/Y107V/Y59L/Y89S). Conditions: DRB1 *0701.
Assay [4] concerns the target HLA-DR DRB1*0802 (DR8) (Homo sapiens, UniProt P01903+P01911, A100R/A103L/A169T/F76Y/H45Y/I96F/K41T/L162R/M171V/P40S/Q125H/Q178H/Q39Y/Q99D/R218S/R42G/S66Y/V115G/W38E).
Assay [5] addresses HLA-DR DRB1*0901 (DR9) (Homo sapiens, UniProt P01903+P01911, A100R/A103E/D57H/D86V/F55Y/F60I/F76Y/I96F/K127E/L162R/M171V/P40D/Q125H/Q99R/R33Q/R42F/S133A/S66N/T210M/V115G/W38K/Y107V/Y59G/Y89S). The following applies: DRB1 *0901.
For assay [6], the target named is HLA-DR DRB1*1101 (DR11) (Homo sapiens, UniProt P01903+P01911, A100R/A169T/A87E/I96F/K41T/L162R/M171V/P40S/Q125H/Q178H/Q39Y/Q99D/R42S/S66Y/T262R/V115G/W38E). The following applies: DRB1 *1101.
Sequence of HLA-DR DRB1*1101 (DR11) (P01903 26-254 limits assumed, other chains not shown): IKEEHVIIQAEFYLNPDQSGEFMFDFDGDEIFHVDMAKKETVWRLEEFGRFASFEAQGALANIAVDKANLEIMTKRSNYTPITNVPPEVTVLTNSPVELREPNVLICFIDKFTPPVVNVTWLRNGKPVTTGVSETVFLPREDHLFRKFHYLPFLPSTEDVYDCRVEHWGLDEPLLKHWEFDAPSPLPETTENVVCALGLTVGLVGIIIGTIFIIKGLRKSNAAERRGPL
Assay [7] concerns the target HLA-DR DRB1*1302 (DR13) (Homo sapiens, UniProt P01903+P01911, A100E/A169T/K41T/L162R/M171V/P40S/Q125H/Q178H/Q39Y/Q99D/R42S/S66N/T262R/V115G/W38E/Y61H). Conditions: DRBI *1302.
For assay [8], the target named is HLA-DR DRB1*1501 (DR15) (Homo sapiens, UniProt P01903+P01911). Conditions: DRBI *1501.
The target of assay [9] is HLA-DR DRB3*0101 (DR52) (Homo sapiens, UniProt P01903+P79483).
Assay [10] concerns the target HLA-DR DRB4*0101 (DR53) (Homo sapiens, UniProt P01903+P13762, G164S). Conditions: DRB4 *0101.
In assay [11] the target is HLA-DR DRB5*0101 (DR51) (Homo sapiens, UniProt P01903+Q30154). The following applies: DRB5 *0101.

No end group written: not given here.

Sequence of HLA-DR DRB1*1302 (DR13) (P01903 26-254 limits assumed, other chains not shown): as above

Turning to `CC[C@H](C)[C@H](NC(=O)[C@H](CO)NC(=O)[C@H](CO)NC(=O)[C@H](CC(=O)O)NC(=O)[C@H](C)NC(=O)[C@H](CC(N)=O)NC(=O)[C@@H](NC(=O)[C@H](Cc1ccc(O)cc1)NC(=O)[C@H](C)NC(=O)[C@@H](NC(=O)CNC(=O)[C@H](CCCNC(=N)N)NC(=O)[C@@H](N)CCC(=O)O)C(C)C)[C@@H](C)CC)C(=O)N[C@@H](CCC(=O)O)C(=O)NCC(=O)O`, the 50% inhibitory concentration (IC50) in assay [1] is 2.44 µM; in [2], 6.76 µM; in [3], 34 µM; in assay [4] it was greater than 163 µM; in assay [5] it was 25.5 µM; in assay [6] it was greater than 50 µM. Moreover, the IC50 in assay [7] is 3.69 µM; in assay [8], 30.3 µM; in assay [9], 6.85 µM; in assay [10], 0.087 µM; in [11] it was no less than 200 µM.
As to `CC[C@H](C)[C@H](NC(=O)[C@H](CO)NC(=O)[C@H](CC(C)C)NC(=O)[C@@H](NC(=O)[C@H](CC(C)C)NC(=O)[C@@H](N)CC(=O)O)C(C)C)C(=O)N[C@@H](C)C(=O)N[C@@H](CC(C)C)C(=O)N[C@@H](CO)C(=O)N[C@H](C(=O)NCC(=O)N[C@@H](CS)C(=O)N[C@H](C(=O)NCC(=O)N[C@@H](C)C(=O)O)[C@@H](C)O)C(C)C`, the IC50 is 1.2 µM in assay [1]; 13 µM in [2]; 4.03 µM in [3]; greater than 245 µM in assay [4]; 2.2 µM in assay [5]; greater than 200 µM in [6]. For the same molecule, the IC50 is 0.098 µM in assay [7]; 18.2 µM in assay [8]; greater than 14.9 µM in [9]; 0.459 µM in assay [10]; greater than 100 µM in assay [11].
Regarding PEEFLRPRSLQCVSL, the IC50 in assay [1] was 2 µM; in assay [2], greater than 26.7 µM; in assay [3], 5.16 µM; in [4], 2.21 µM; in [5], 5.84 µM; in assay [6] it was 10.7 µM. Further, the IC50 is 11.7 µM in assay [7]; 3.19 µM in [8]; greater than 14.4 µM in assay [9]; 0.117 µM in [10]; 57.5 µM in assay [11].
Consider `CC[C@H](C)[C@H](NC(=O)[C@H](CS)NC(=O)[C@H](Cc1c[nH]cn1)NC(=O)[C@H](C)NC(=O)[C@H](C)NC(=O)[C@@H](NC(=O)[C@H](CC(C)C)NC(=O)[C@@H](NC(=O)[C@H](Cc1c[nH]c2ccccc12)NC(=O)[C@@H](N)CCC(N)=O)C(C)C)[C@@H](C)O)C(=O)N[C@@H](CCCNC(=N)N)C(=O)N[C@@H](CC(N)=O)C(=O)N[C@@H](CCCCN)C(=O)N[C@@H](CO)C(=O)N[C@H](C(=O)O)C(C)C`, for which the IC50 in [1] was 0.05 µM; in assay [2], 19.4 µM; in assay [3], 0.214 µM; in assay [4], 2.6 µM; in assay [5] it was 0.967 µM; in [6], 2.17 µM. Further, the half-maximal inhibitory concentration (IC50) in assay [7] is 2.06 µM; in assay [8], 13.6 µM; in [9], 7.34 µM; in assay [10], 3.8 µM; in [11], 0.035 µM.
For the molecule PHPLYNMSLLKHQSL, the IC50 in assay [1] came out at 19.1 µM; in [2] it was 0.819 µM; in assay [3], 20.7 µM; in assay [4], 3.31 µM; in assay [5], 1.59 µM; in [6], 6.46 µM. In addition, the half-inhibitory concentration (IC50) is 3.31 µM in assay [7]; 3.87 µM in assay [8]; greater than 14.9 µM in assay [9]; 0.049 µM in assay [10]; 1.9 µM in assay [11].
With `CC(C)C[C@H](NC(=O)CNC(=O)[C@H](CC(N)=O)NC(=O)[C@@H](N)Cc1ccc(O)cc1)C(=O)N[C@@H](CC(C)C)C(=O)N1CCC[C@H]1C(=O)N1CCC[C@H]1C(=O)N[C@@H](Cc1ccc(O)cc1)C(=O)N[C@@H](C)C(=O)N[C@@H](CO)C(=O)N[C@@H](CS)C(=O)N[C@@H](Cc1c[nH]cn1)C(=O)N[C@@H](CC(C)C)C(=O)N[C@H](C(=O)N[C@@H](CCC(=O)O)C(=O)O)[C@@H](C)O`, the IC50 in assay [1] was 0.042 µM; in [2], 6.19 µM; in [3], greater than 83.3 µM; in assay [4], 14 µM; in assay [5], 8.02 µM; in [6] it was 5.3 µM. The IC50 in [7] was 11.7 µM; in assay [8], 0.252 µM; in assay [9], greater than 15 µM; in [10], greater than 10.9 µM; in assay [11], no less than 100 µM.
On to `CC[C@H](C)[C@H](NC(=O)CNC(=O)[C@H](CCC(N)=O)NC(=O)[C@H](CC(C)C)NC(=O)[C@@H](NC(=O)CNC(=O)[C@H](CC(N)=O)NC(=O)[C@H](CS)NC(=O)[C@@H](NC(=O)[C@H](CC(C)C)NC(=O)[C@@H]1CCCN1C(=O)CNC(=O)CN)C(C)C)C(C)C)C(=O)N[C@H](C(=O)N[C@@H](CO)C(=O)O)[C@@H](C)O`, for which the IC50 in [1] is 3.35 µM; in [2], 0.068 µM; in assay [3], greater than 35.7 µM; in assay [4] it was 9.33 µM; in assay [5], 16.3 µM; in [6], 1.83 µM. For the same molecule, the IC50 was 0.036 µM in assay [7]; 30.3 µM in assay [8]; greater than 6.57 µM in assay [9]; 0.815 µM in assay [10]; 13.4 µM in [11].
Regarding GRAVCGGVLVHPQWV, the IC50 in [1] was 0.386 µM; in assay [2] it was greater than 26.7 µM; in assay [3], 3.58 µM; in [4], greater than 245 µM; in assay [5], 8.07 µM; in assay [6], greater than 50 µM. In addition, the IC50 in assay [7] was 5.46 µM; in [8], 12.9 µM; in [9], greater than 12.1 µM; in assay [10], 0.062 µM; in assay [11], no less than 100 µM.
On to `CC[C@H](C)[C@H](NC(=O)[C@@H](NC(=O)[C@@H]1CCCN1C(=O)CNC(=O)[C@@H](NC(=O)[C@H](CC(C)C)NC(=O)[C@H](CCC(=O)O)NC(=O)[C@H](C)NC(=O)[C@@H](N)Cc1ccccc1)C(C)C)C(C)C)C(=O)N1CCC[C@H]1C(=O)N[C@@H](CCC(N)=O)C(=O)N[C@@H](CC(=O)O)C(=O)N[C@@H](Cc1c[nH]c2ccccc12)C(=O)N[C@@H](CO)C(=O)N[C@H](C(=O)O)[C@@H](C)O`, for which the IC50 in [1] was 0.012 µM; in [3], 24.1 µM; in [4], greater than 245 µM; in [5] it was 39.5 µM; in assay [6], greater than 50 µM; in [7], greater than 35 µM. Also, the concentration for half-maximal inhibition (IC50) in [8] was greater than 45.5 µM; in [9], greater than 15 µM; in assay [10], 0.983 µM; in assay [11] it was greater than 200 µM.
Turning to `CC[C@H](C)[C@H](NC(=O)[C@@H]1CCCN1C(=O)[C@H](CC(=O)O)NC(=O)[C@@H](NC(=O)[C@@H]1CCCN1C(=O)[C@H](Cc1ccccc1)NC(=O)[C@@H](NC(=O)[C@H](CC(=O)O)NC(=O)[C@@H](NC(=O)[C@@H]1CCCN1C(=O)[C@H](CO)NC(=O)[C@@H](N)CCCNC(=N)N)[C@@H](C)CC)[C@@H](C)O)[C@@H](C)O)C(=O)N[C@@H](CCCCN)C(=O)N[C@@H](CCC(=O)O)C(=O)N[C@@H](CO)C(=O)O`, the IC50 in assay [1] was greater than 50 µM; in [3] it was greater than 62.5 µM; in [4], greater than 245 µM; in [5], 6.12 µM; in [6] it was greater than 200 µM; in assay [7] it was greater than 35 µM. Moreover, the IC50 in assay [8] is 2.37 µM; in [9], greater than 14.4 µM; in assay [10], 0.469 µM; in assay [11] it was 28.6 µM.

For orientation: IC50 means the concentration that inhibits the measured activity by half. Low values mean greater potency in that assay, high ones weaker potency in that assay.
